The structures appear in SMILES notation.

Assay [1] has as its system SARS-CoV-2. The assay is described as follows: Selectivity ratio of EC50 for nirmatrelvir-resistant SARS-CoV-2 harboring rL50F/E166A/L167F mutant infected in human Caco-2 cells expressing hTMPRSS/hACE2 to EC50 for wild-type SARS-CoV-2 WA1 infected in human Caco-2 cells expressing hTMPRSS/hACE2. The class given is functional.
For assay [2], the system named is SARS-CoV-2. The assay is described as follows: Antiviral activity against nirmatrelvir-resistant SARS-CoV-2 harboring rL50F/E166A/L167F mutant infected in human Caco-2 cells expressing hTMPRSS/hACE2 incubated for 48 hrs in presence of CP-100356 by crystal violet staining based analysis. The class given is functional, organism-based, Severe acute respiratory syndrome coronavirus 2.

For `CC(C)(C)[C@H](NC(=O)C(F)(F)F)C(=O)N1C[C@H]2[C@@H]([C@H]1C(=O)N[C@H](C#N)C[C@@H]1CCNC1=O)C2(C)C`, in the assay on SARS-CoV-2 [1], the “Ratio EC50” value is reported as 14.8. In addition, in the assay on SARS-CoV-2 [2], the EC50 amounted to 501 nM.

The EC50 is the concentration giving half of the maximal effect.
